# How the values were obtained:
# [1] = Thermal degradation of agrochemical; format: physicochemical
# [2] = Solubility of agrochemical in solvent or melt; format: physicochemical; settings: melt at about 65 to 70° C.
smiles,measurement,setting,value
CC1(C)[C@H](C(=O)O[C@H](C#N)c2cccc(Oc3ccccc3)c2)[C@@H]1/C=C(\Cl)C(F)(F)F (racemic) [lambda cyhalothrin],temperature above which it tends to degrade,[1],> 100 °C
CCCCCCCCCCCCCCCCCC(=O)O [stearic acid],retardation of germination,seeds,no significant retardation of germination
CN1COCN(Cc2cnc(Cl)s2)/C1=N\[N+](=O)[O-] [thiamethoxam],solubility in melt of polyethylene glycol and methyl oleate,[2],readily soluble
